Test results: PubChem BioAssay (NCI)
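Cells were grown in 96-well plates and exposed to each compound for 48 hours at five concentrations; endpoints were interpolated linearly between bracketing concentrations, or set to the highest concentration if not reached. The concentration for 50% growth inhibition is given as GI50. Definition used: TGI = concentration required for complete inhibition of growth.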

How the values were obtained:
Assay in all cases: NCI anticancer screen, dose series, 48 h; in the data active = GI50 below about 0.43 µM; inactive = the rest
[1] = test system: SNB-75 CNS
[2] = test system: U251 CNS
[3] = test system: 786-0 renal
[4] = test system: SK-MEL-2 melanoma
[5] = test system: M14 melanoma
[6] = test system: UACC-62 melanoma
[7] = test system: RPMI-8226 leukemia
[8] = test system: A549 NSCLC
[9] = test system: SW-620 colon
[10] = test system: SK-MEL-28 melanoma
[11] = test system: ACHN renal
[12] = test system: K-562 leukemia
[13] = test system: MCF7 breast
[14] = test system: NCI/ADR-RES ovarian
[15] = test system: T-47D breast
[16] = test system: NCI-H460 lung
[17] = test system: COLO 205 colon
[18] = test system: MDA-MB-435
[19] = test system: RXF 393 renal
[20] = test system: HOP-62 NSCLC
[21] = test system: SR leukemia
[22] = test system: SK-MEL-5 melanoma
[23] = test system: CAKI-1 renal
[24] = test system: OVCAR-5 ovarian
[25] = test system: SK-OV-3 ovarian
[26] = test system: OVCAR-4 ovarian
[27] = test system: SF-268 CNS
[28] = test system: NCI-H23 lung
[29] = test system: IGROV1 ovarian
[30] = test system: MALME-3M melanoma
[31] = test system: LOX IMVI melanoma
[32] = test system: MDA-MB-231 breast
[33] = test system: OVCAR-8 ovarian
[34] = test system: HCT-15 colon
[35] = test system: SF-295 CNS
[36] = test system: HT29 colon
[37] = test system: HL-60(TB) leukemia
[38] = test system: HOP-92 NSCLC
[39] = test system: NCI-H522 lung
[40] = test system: TK-10 renal
[41] = test system: MOLT-4 leukemia
[42] = test system: HCT-116 colon
[43] = test system: OVCAR-3 ovarian
[44] = test system: PC-3 prostate
[45] = test system: UACC-257 melanoma
[46] = test system: SNB-19 CNS
[47] = test system: CCRF-CEM leukemia
[48] = test system: SN12C renal
[49] = test system: KM12 colon
[50] = test system: HCC-2998 colon

Nc1ncnc2nc(-c3ccc(C[P+](c4ccccc4)(c4ccccc4)c4ccccc4)cc3)[nH]c12
inactive: GI50 [1] 57.7 µM | GI50 [2] 32.7 µM | GI50 [3] 48.2 µM

O=P(O)(Cc1ccccc1)OCC1(O)OCC(O)C(O)C1O (centres undefined)
> 10 µM: TGI [4] | TGI [5] | TGI [6] | TGI [1] | TGI [7] | TGI [8] | TGI [9] | TGI [10] | TGI [11] | TGI [12] | TGI [13] | TGI [14] | TGI [15] | TGI [16] | TGI [17] | TGI [18] | TGI [19] | TGI [20] | TGI [21] | TGI [22] | TGI [23] | TGI [24] | TGI [2] | TGI [25] | TGI [26] | TGI [27] | TGI [28] | TGI [29] | TGI [30] | TGI [3]

CC[N+](CC)(CC)CCCn1c2c(c3ccccc3c1=O)C(=O)c1ccccc1-2
23.6 µM: TGI [47]
21.4 µM: TGI [39]
7.4 µM: TGI [13]
53.4 µM: TGI [4]
24.1 µM: TGI [29]
inactive: GI50 [31] 4.63 µM | GI50 [4] 21.8 µM | GI50 [5] 3.1 µM | GI50 [32] 17.6 µM | GI50 [6] 9.31 µM | GI50 [1] 80 µM | GI50 [7] 5.2 µM | GI50 [8] 6.27 µM | GI50 [9] 4.24 µM | GI50 [33] 3.66 µM | GI50 [10] 29.2 µM | GI50 [11] 3.07 µM | GI50 [34] 4.97 µM | GI50 [12] 18.7 µM | GI50 [13] 2.89 µM | GI50 [35] 7.38 µM | GI50 [36] 6.3 µM | GI50 [14] 6.5 µM | GI50 [15] 98.1 µM | GI50 [37] 58.6 µM | GI50 [38] 17.9 µM | GI50 [16] 1.85 µM | GI50 [39] 4.71 µM | GI50 [17] 23.1 µM | GI50 [18] 18.3 µM | GI50 [40] 1.01 µM | GI50 [41] 5.58 µM | GI50 [21] 3.56 µM | GI50 [22] 1.43 µM | GI50 [42] 1.95 µM | GI50 [23] 3.74 µM | GI50 [43] 9.05 µM | GI50 [44] 9.13 µM | GI50 [24] 16.5 µM | GI50 [45] 12.3 µM | GI50 [46] 31.6 µM | GI50 [2] 4.77 µM | GI50 [25] 52.6 µM | GI50 [26] 55.3 µM | GI50 [47] 2.99 µM | GI50 [27] 3.42 µM | GI50 [28] 2.31 µM | GI50 [29] 3.1 µM | GI50 [48] 5.59 µM | GI50 [49] 4.74 µM | GI50 [3] 7.35 µM | GI50 [50] 5.62 µM
48.6 µM: TGI [24]
36.3 µM: TGI [45]
9.27 µM: TGI [42]
6.42 µM: TGI [28]
57.9 µM: TGI [35]
24.4 µM: TGI [27]
32 µM: TGI [3]
27.2 µM: TGI [14]
17.6 µM: TGI [19]
84.2 µM: TGI [32]
> 100 µM: TGI [31] | TGI [1] | TGI [7] | TGI [9] | TGI [10] | TGI [34] | TGI [12] | TGI [36] | TGI [15] | TGI [37] | TGI [38] | TGI [17] | TGI [40] | TGI [41] | TGI [21] | TGI [46] | TGI [2] | TGI [25] | TGI [26] | TGI [48] | TGI [49]
29.3 µM: TGI [6]
active: GI50 [19] 0.056 µM
35.8 µM: TGI [8]
26.8 µM: TGI [11]
62.6 µM: TGI [18]
4.49 µM: TGI [16]
50.2 µM: TGI [43]
30.9 µM: TGI [23]
20.9 µM: TGI [50]
12.1 µM: TGI [5]
69.1 µM: TGI [44]
5.91 µM: TGI [22]
22.8 µM: TGI [33]
